# In ChEMBL document CHEMBL2203009, “Synthesis of isoindole and benzoisoindole derivatives of teicoplanin pseudoaglycon with remarkable antibacterial and antiviral activities” (Bioorg Med Chem Lett, 2012):
# Key:
# [1] = Toxicity in HEL cells assessed as induction of cell morphology changes; format: cell-based; details: human
# [2] = test system: Human alphaherpesvirus 1; experiment: Antiviral activity against thymidine kinase deficient and acyclovir-resistant HSV1 KOS infected in HEL cells assessed as inhibition of virus-induced cytopathic effect; format: functional, organism-based; details: Human alphaherpesvirus 1, KOS
# [3] = test system: Vesicular stomatitis virus; experiment: Antiviral activity against Vesicular stomatitis virus infected in HEL cells assessed as inhibition of virus-induced cytopathic effect; format: functional, organism-based
# [4] = test system: Vaccinia virus; experiment: Antiviral activity against Vaccinia virus infected in HEL cells assessed as inhibition of virus-induced cytopathic effect; format: functional, organism-based; details: Orthopoxvirus vaccinia
# [5] = test system: Human alphaherpesvirus 2; experiment: Antiviral activity against HSV2 G infected in HEL cells assessed as inhibition of virus-induced cytopathic effect; format: functional, organism-based; details: Human alphaherpesvirus 2, strain G
# [6] = test system: Human alphaherpesvirus 1; experiment: Antiviral activity against HSV1 KOS infected in HEL cells assessed as inhibition of virus-induced cytopathic effect; format: functional, organism-based; details: Human alphaherpesvirus 1, KOS
# [7] = Toxicity in MDCK cells assessed as induction of cell morphology changes; format: cell-based, Canis lupus familiaris; details: dog
# [8] = test system: Influenza B virus; experiment: Antiviral activity against Influenza B virus (B/Hong Kong/05/1972) […] infected in MDCK cells assessed as inhibition of virus-induced cytopathic effect; format: functional, cell-based; details: B/Hong Kong/05/1972, MDCK
# [9] = test system: H3N2 subtype; experiment: Antiviral activity against Influenza A virus (A/Hong Kong/7/1987(H3N2)) […] infected in MDCK cells assessed as inhibition of virus-induced cytopathic effect; format: functional, organism-based
# [10] = test system: Influenza A virus; experiment: Antiviral activity against Influenza A virus (A/Puerto Rico/8/1934(H1N1)) H1N1 infected in MDCK cells assessed as inhibition of virus-induced cytopathic effect; format: functional, organism-based
# [11] = test system: Enterococcus faecalis; experiment: Antimicrobial activity against Enterococcus faecalis 15376 over-expressing vanA; format: functional
# [12] = test system: Enterococcus faecalis; experiment: Antimicrobial activity against Enterococcus faecalis ATCC 51299 over-expressing vanB; format: functional
# [13] = test system: Staphylococcus epidermidis; experiment: Antimicrobial activity against Staphylococcus epidermidis over-expressing MecA; format: functional
# [14] = test system: Enterococcus faecalis; experiment: Antimicrobial activity against Enterococcus faecalis ATCC 29212; format: functional
# [15] = test system: Staphylococcus epidermidis; experiment: Antimicrobial activity against Staphylococcus epidermidis ATCC 35984 biofilms; format: functional
# [16] = test system: Staphylococcus aureus; experiment: Antimicrobial activity against methicillin-resistant Staphylococcus aureus ATCC 33591; format: functional
# [17] = test system: Bacillus subtilis; experiment: Antimicrobial activity against Bacillus subtilis ATCC 6633; format: functional
# [18] = test system: Staphylococcus aureus; experiment: Antimicrobial activity against methicillin-sensitive Staphylococcus aureus ATCC 29213; format: functional
Structure (SMILES),MCC [1] [µM],EC50 [2] [µM],EC50 [3] [µM],EC50 [4] [µM],EC50 [5] [µM],EC50 [6] [µM],EC50 [8] [µM],EC50 [9] [µM],EC50 [10] [µM],MBC [11] [µg/mL],MIC [11] [µg/mL],MBC [12] [µg/mL],MIC [12] [µg/mL],MBC [13] [µg/mL],MIC [13] [µg/mL],MBC [14] [µg/mL],MIC [14] [µg/mL],MBC [15] [µg/mL],MIC [15] [µg/mL],MBC [16] [µg/mL],also measured
CC(=O)N[C@H]1[C@H](O[C@@H]2c3ccc(c(Cl)c3)Oc3cc4cc(c3O)Oc3ccc(cc3Cl)C[C@H]3NC(=O)[C@H](n5cc6cc7ccccc7cc6c5Sc5nc6ccccc6s5)c5ccc(O)c(c5)Oc5cc(O)cc(c5)[C@H](NC3=O)C(=O)N[C@H]4C(=O)N[C@H]3C(=O)N[C@@H]2C(=O)N[C@H](C(=O)O)c2cc(O)cc(O)c2-c2cc3ccc2O)O[C@H](CO)[C@@H](O)[C@@H]1O,> 100,> 100,> 100,> 100,> 100,> 100,> 100,1.6,< 4.9,32,0.0313,256,1,256,0.0313,256,0.0313,0.5,0.015,4,MCC [7]: 20 µM; MIC [16]: 0.015 µg/mL; MBC [17]: 4 µg/mL; MIC [17]: 0.0313 µg/mL; MBC [18]: 0.5 µg/mL; MIC [18]: 0.015 µg/mL
CC(N)C12CC3CC(CC(C3)C1)C2 (stereo not drawn) [RIMANTADINE],–,–,–,–,–,–,> 500,0.051,14,–,–,–,–,–,–,–,–,–,–,–,–
CC(=O)N[C@H]1[C@H](O[C@@H]2c3ccc(c(Cl)c3)Oc3cc4cc(c3O)Oc3ccc(cc3Cl)C[C@H]3NC(=O)[C@H](n5cc6ccccc6c5S[C@@H]5O[C@H](CO)[C@@H](O)[C@H](O)[C@H]5O)c5ccc(O)c(c5)Oc5cc(O)cc(c5)[C@H](NC3=O)C(=O)N[C@H]4C(=O)N[C@H]3C(=O)N[C@@H]2C(=O)N[C@H](C(=O)O)c2cc(O)cc(O)c2-c2cc3ccc2O)O[C@H](CO)[C@@H](O)[C@@H]1O,≥ 100,≥ 45,52,45,40,45,> 100,> 100,> 100,256,0.0625,256,1,32,0.015,256,2,0.5,0.0075,1,MCC [7]: < 0.8 µM; MIC [16]: 0.0075 µg/mL; MBC [17]: 1 µg/mL; MIC [17]: 0.125 µg/mL; MBC [18]: 1 µg/mL; MIC [18]: 0.0313 µg/mL
Nc1nc2c(ncn2COC(CO)CO)c(=O)[nH]1 [GANCICLOVIR],> 100,4,> 100,> 100,0.013,0.015,–,–,–,–,–,–,–,–,–,–,–,–,–,–,–
CC(=O)N[C@@H]1[C@H](Oc2c3cc4cc2Oc2ccc(cc2Cl)[C@@H](O[C@@H]2O[C@@H](CO)[C@@H](O)[C@H](O)[C@@H]2NC(C)=O)[C@@H]2NC(=O)[C@H](NC(=O)[C@@H]4NC(=O)[C@H]4NC(=O)[C@@H](Cc5ccc(c(Cl)c5)O3)NC(=O)[C@H](N)c3ccc(O)c(c3)Oc3cc(O)cc4c3)c3ccc(O)c(c3)-c3c(O[C@H]4O[C@H](CO)[C@@H](O)[C@@H](O)[C@@H]4O)cc(O)cc3[C@@H](C(=O)O)NC2=O)O[C@@H](CO)[C@@H](O)[C@@H]1O,–,–,–,–,–,–,–,–,–,256,256,256,4,32,8,64,2,16,2,2,MIC [16]: 0.5 µg/mL; MBC [17]: 16 µg/mL; MIC [17]: 0.5 µg/mL; MBC [18]: 2 µg/mL; MIC [18]: 0.5 µg/mL
CC(=O)N[C@H]1[C@H](O[C@@H]2c3ccc(c(Cl)c3)Oc3cc4cc(c3O)Oc3ccc(cc3Cl)C[C@H]3NC(=O)[C@H](n5cc6cc7ccccc7cc6c5Sc5ccccc5)c5ccc(O)c(c5)Oc5cc(O)cc(c5)[C@H](NC3=O)C(=O)N[C@H]4C(=O)N[C@H]3C(=O)N[C@@H]2C(=O)N[C@H](C(=O)O)c2cc(O)cc(O)c2-c2cc3ccc2O)O[C@H](CO)[C@@H](O)[C@@H]1O,100,> 20,> 20,> 20,> 20,> 20,> 100,> 100,> 100,32,0.125,256,2,256,0.0313,256,1,0.5,0.0313,0.5,MCC [7]: < 0.8 µM; MIC [16]: 0.25 µg/mL; MBC [17]: 4 µg/mL; MIC [17]: 2 µg/mL; MBC [18]: 1 µg/mL; MIC [18]: 0.0313 µg/mL
